We go through 29 molecules from patent US20110195979A1, “COMPOUNDS FOR THE TREATMENT AND PREVENTION OF INFLUENZA” (priority 2010, published 2011).

Read-outs that look alike come from different tables or passages of the source. A value given as a limit tells only on which side of the number the result lay.

The test system of data set [1] is Influenza H1N1 virus. In words: Viral cytopathic effect (CPE) assay. In kind it is cell-based, Influenza A (H1N1). The conditions noted are these: read-out: CPE_EC50. Here is the method: Cells and viruses. Madin-Darby canine kidney cell (MDCK) was purchased from American type culture collection (ATCC) and was maintained in minimal essential medium (MEM) containing 10% fetal bovine serum and antibiotics. Influenza A/Weiss/43 (H1N1), A/PR/8/34 (H1N1), and A/Hongkong/8/68 (H3N2) were purchased from ATCC and propagated in 10-day-old embryonated chicken eggs at 37° C. Virus was harvested 48 h after inoculation as pooled allantoic fluid. After a brief centrifugation (3,000 rpm at room temperature for 20 min) and virus titer measurement by a hemagglutination test, virus was aliquoted and stored at a −80° C. freezer.
Viral cytopathic effect (CPE) assay: To measure anti-influenza activity of compounds, MDCK cells were seeded into 96-well plates at a density of 5,000 cells per well. Next day, compounds were serially half-log diluted with Gibco SFM containing trypsin. Compounds and 50 pfu of virus were added into corresponding wells to make m.o.i at 0.01 and a final trypsin concentration of 2.5 μg/ml. The testing plates also contained medium control, cell control, virus control, and compound toxicity control. After a 3-day treatment, cell viability was measured with a MTT (3-(4,5-dimethylthiazol-2-yl)-2,5-diphenyltetrazolium bromide) method. Briefly, 20 μl of MTT diluted in culture medium was added into each wells and incubated at 37° C. for 4 hours. Reduced MTT (formazan) was extracted with acidic isopropanol and absorbance at wavelengths of 570 nm and 630 nm (OD570 and OD630) was read on a microtiter plate reader. After subtraction of background OD values, dose response curves of half-log concentration vs. percent protection were generated, on which half maximal effective concentration (EC50) and half maximal toxic concentration (CC50) were calculated.

The subject of data set [2] is MDCK cells. In words: Cytotoxicity to MDCK cells (compound toxicity control, MTT). Conditions: for IC50: read-out: Cytotoxicy IC50, half maximal cytotoxicity concentration to MDCK cells, MTT; for IC50 at 3 day: dog.
The subject of data set [3] is MDCK cells. In words: in vitro. The conditions noted are these: dog, Cytotoxicy IC50.
Data set [4] deals with H1 and H2 viruses. The conditions noted are these: cited from earlier work.
Data set [5] concerns H3 viruses. The conditions noted are these: cited from earlier work.
Setting [6] is: H1N1, MDCK cells, m.o.i 0.01, 3-day treatment, MTT OD, mean of triplicate experiments.
Where [7] appears, read: Influenza A virus, H1N1, MDCK, 72 h.

For “(cis-1,5)-5-Hydroxy-1,3,3-trimethyl-cyclohexanecarboxylic acid(4-chloro-3-trifluoromethyl-phenyl)-amide [Example IVa-22]”, the EC50 in data set [1] (setting [6]) was determined as 165 nM. Besides, in data set [2], the IC50 turned out to be 7490 nM.
For the molecule `CC1(C)CC(O)CC(C)(CNc2ccc(C#N)c(Cl)c2)C1` (stereo not drawn) [Example IIa-29, 2-Chloro-4-[((cis-1,5)-5-hydroxy-1,3,3-trimethyl-cyclohexylmethyl)-amino]-benzonitrile], in data set [1] (setting [7]), the EC50 is 180 nM. Also, the IC50 at 3 day in data set [2] stood at 8220 nM.
Take `CC1(C)CC(O)CC(C)(CNc2nccc(C(F)(F)F)n2)C1` (stereo not drawn) [Example IIIa-10, (cis-1,5)-3,3,5-Trimethyl-5-[(4-trifluoromethyl-pyrimidin-2-ylamino)-methyl]-cyclohexanol]: the EC50 in data set [1] (setting [7]) worked out at 120 nM. In addition, the midpoint of inhibition in data set [3], the IC50 at 3 day, lay at 47800 nM.
For `CC1(C)CC(O)CC(C)(C(=O)Nc2cccc(OC(F)(F)F)c2)C1` (stereo not drawn) [Example IVa-8, (cis-1,5)-5-Hydroxy-1,3,3-trimethyl-cyclohexanecarboxylic acid(3-trifluoromethoxy-phenyl)-amide] the same measures were 861 nM and 60000 nM.
For `CC1(C)C[C@@H](O)C[C@@](C)(CNc2cc(Cl)cc(C#N)c2)C1` (relative stereo) [Example IIa-23, 3-Chloro-5-[((cis-1,5)-5-hydroxy-1,3,3-trimethyl-cyclohexylmethyl)-amino]-benzonitrile], the EC50 in data set [1] (setting [6]) was found to be 34 nM. In addition, the IC50 in data set [2] is 13900 nM.
For the molecule `CC1(C)CC(O)CC(C)(CNc2nccc3ccccc23)C1` (stereo not drawn) [Example IIIf-1, (cis-1,3)-3-(Isoquinolin-1-ylaminomethyl)-3,5,5-trimethyl-cyclohexanol], in data set [1] (setting [7]), the EC50 is 2370 nM. In addition, the IC50 at 3 day in data set [3] worked out at 43700 nM.
For `CC1(C)CCCC(C)(CNc2cc(F)cc(C(F)(F)F)c2)C1` (stereo not shown) [Example IIc-1, (3-Fluoro-5-trifluoromethyl-phenyl)-(1,3,3-trimethyl-cyclohexylmethyl)-amine], in that order: 237 nM and 2320 nM.
For the molecule `C[C@@H]1CCC[C@@H]2C[C@@H](NC(=O)c3cc(Cl)c(N)cc3O)CCN21` [BMY 27709], the EC50 in data set [4] (read-out: anti-flu activity EC50) is 6000 to 8000 nM. Further, in data set [5], the “activity against H3 viruses” value is listed as “not H3 viruses”.
For `CN(C)C1CC(C)(C)CC(C)(CNc2cc(F)cc(C(F)(F)F)c2)C1` (stereo not drawn) [Example IIh-1, ((cis-1,5)-5-Dimethylamino-1,3,3-trimethyl-cyclohexylmethyl)-(3-fluoro-5-trifluoromethyl-phenyl)-amine], in data set [1] (setting [7]), the EC50 turned out to be 1700 nM. Further, in data set [3], the 50% inhibitory concentration (IC50) at 3 day turned out to be 8390 nM.
For `CC1(C)CC(O)CC(C)(C(=O)Nc2cccc(C(F)(F)F)c2)C1` (stereo not drawn) [Example IVa-4, (cis-1,5)-5-Hydroxy-1,3,3-trimethyl-cyclohexanecarboxylic acid(3-trifluoromethyl-phenyl)-amide], in that order: 340 nM and 68300 nM.
For `CC1(C)CC(O)CC(C)(CNc2cc(Cl)cc(Cl)c2)C1` (stereo not drawn) [Example IIa-19, (cis-1,3)-3-[(3,5-Dichloro-phenylamino)-methyl]-3,5,5-trimethyl-cyclohexanol] the same measures were 32 nM and 7190 nM.
For `CC1(C)CC(O)CC(C)(C(=O)Nc2cccc(S(N)(=O)=O)c2)C1` (stereo not drawn) [Example IVa-10, (cis-1,5)-5-Hydroxy-1,3,3-trimethyl-cyclohexanecarboxylic acid(3-sulfamoyl-phenyl)-amide], in that order: 7960 nM and above 100000 nM.
As for `CC1(C)CC(O)CC(C)(C(=O)Nc2cc(Br)cc(C(F)(F)F)c2)C1` (stereo not drawn) [Example IVa-15, (cis-1,5)-5-Hydroxy-1,3,3-trimethyl-cyclohexanecarboxylic acid(3-bromo-5-trifluoromethyl-phenyl)-amide], the EC50 in data set [1] (setting [7]) is 55 nM. In addition, 7310 nM corresponded to half-maximal inhibition in data set [3] (IC50 at 3 day).
For `CC(C)c1cccc(NC(=O)C2(C)CC(O)CC(C)(C)C2)c1` (stereo not drawn) [Example IVa-5, (cis-1,5)-5-Hydroxy-1,3,3-trimethyl-cyclohexanecarboxylic acid(3-isopropyl-phenyl)-amide] the same measures were 1040 nM and 21600 nM.
Regarding `C[C@H]1CC[C@H]2C(C)(C)[C@@H](O)CC[C@]23Oc2c(c(O)cc4c2CNC4=O)C[C@]13C` [stachyflin], the “block of influenza virus replication” value in data set [4] is “blocked”. Further, the “activity against H3 viruses” value in data set [5] is on record as “not H3 viruses”.
In the case of `CC1(C)CC(O)CC(C)(CNc2cc(C(F)(F)F)cc(C(F)(F)F)c2)C1` (stereo not drawn) [Example IIa-25, (cis-1,3)-3-[(3,5-Bis-trifluoromethyl-phenylamino)-methyl]-3,5,5-trimethyl-cyclohexanol], the EC50 in data set [1] (setting [7]) amounted to 95 nM. Moreover, the half-inhibitory concentration (IC50) at 3 day in data set [3] was found to be 2830 nM.
Take `CC1(C)CC(O)CC(C)(CNc2noc3ccccc23)C1` (stereo not drawn) [Example IIId-1, (cis-1,3)-3-(Benzo[d]isoxazol-3-ylaminomethyl)-3,5,5-trimethyl-cyclohexanol]: in data set [1] (setting [7]), the EC50 is 400 nM. Moreover, the concentration for half-maximal inhibition (IC50) at 3 day in data set [3] was above 50000 nM.
As to `CC1(C)CC(O)CC(C)(CNc2cncc(Cl)n2)C1` (stereo not drawn) [Example IIIb-1, (cis-1,3)-3-[(6-Chloro-pyrazin-2-ylamino)-methyl]-3,5,5-trimethyl-cyclohexanol], the EC50 in data set [1] (setting [7]) came to 4120 nM. Further, the IC50 at 3 day in data set [3] was above 50000 nM.
For the molecule `CC1(C)CC(F)(F)CC(C)(CNc2cc(F)cc(C(F)(F)F)c2)C1` (stereo not shown) [Example IIe-1, (3,3-Difluoro-1,5,5-trimethyl-cyclohexylmethyl)-(3-fluoro-5-trifluoromethyl-phenyl)-amine], the EC50 in data set [1] (setting [7]) was 264 nM. Also, the IC50 at 3 day in data set [3] was above 3160 nM.
For `COc1cc(NC(=O)C2(C)CC(O)CC(C)(C)C2)cc(C(F)(F)F)c1` (stereo not drawn) [Example IVa-16, (cis-1,5)-5-Hydroxy-1,3,3-trimethyl-cyclohexanecarboxylic acid(3-methoxy-5-trifluoromethyl-phenyl)-amide], in that order: 60 nM and 74800 nM.
For `CC(C)c1cccc(NCC2(C)CC(O)CC(C)(C)C2)c1` (stereo not drawn) [Example IIa-12, (cis-1,3)-3-[(3-Isopropyl-phenylamino)-methyl]-3,5,5-trimethyl-cyclohexanol], in that order: 90 nM and 6680 nM.
For `COC1CC(C)(C)CC(C)(CNc2cc(F)cc(C(F)(F)F)c2)C1` (stereo not drawn) [Example IIf-1, (3-Fluoro-5-trifluoromethyl-phenyl)-((cis-1,5)-5-methoxy-1,3,3-trimethyl-cyclohexylmethyl)-amine] the same measures were 129 nM and above 3160 nM.
As for `COC1CC(C)(C)CC(C)(CNc2nc3ccccc3o2)C1` (stereo not drawn) [Example IIIc-3, Benzoxazol-2-yl-((cis-1,5)-5-methoxy-1,3,3-trimethyl-cyclohexylmethyl)-amine], in data set [1] (setting [7]), the EC50 was 7430 nM. The half-inhibitory concentration (IC50) at 3 day in data set [3] is above 50000 nM.
For `CC1(C)CC(O)CC(C)(CNc2nc3ccccc3o2)C1` (stereo not drawn) [Example IIIc-1, (cis-1,3)-3-(Benzoxazol-2-ylaminomethyl)-3,5,5-trimethyl-cyclohexanol] the same measures were 1420 nM and 83000 nM.
On to `CC1(C)CC(O)CC(C)(CNc2cc(F)cc(C#N)c2)C1` (stereo not drawn) [Example IIa-22, 3-Fluoro-5-[((cis-1,5)-5-hydroxy-1,3,3-trimethyl-cyclohexylmethyl)-amino]-benzonitrile], for which, in data set [1] (setting [7]), the EC50 was 50 nM. The molecule also registered an IC50 at 3 day in data set [3] of 23900 nM.
`CC1(C)CC(O)CC(C)(C(=O)Nc2ccc(Cl)c(F)c2)C1` (stereo not drawn) [Example IVa-19, (cis-1,5)-5-Hydroxy-1,3,3-trimethyl-cyclohexanecarboxylic acid(4-chloro-3-fluoro-phenyl)amide]: the EC50 in data set [1] (setting [7]) is 1800 nM. The IC50 at 3 day in data set [3] is 30800 nM.
With `CC1(C)CC(O)CC(C)(CNc2ccc(C#N)c(C(F)(F)F)c2)C1` (stereo not drawn) [Example IIa-33, 4-[((cis-1,5)-5-Hydroxy-1,3,3-trimethyl-cyclohexylmethyl)-amino]-2-trifluoromethyl-benzonitrile], in data set [1] (setting [7]), the EC50 came out at 49 nM. In data set [2], inhibition was half-maximal at 8350 nM (IC50 at 3 day).
`CC1(C)CC(O)CC(C)(CNc2cc(C#N)cc(C(F)(F)F)c2)C1` (stereo not drawn) [Example IIa-24, 3-[((cis-1,5)-5-Hydroxy-1,3,3-trimethyl-cyclohexylmethyl)-amino]-5-trifluoromethyl-benzonitrile]: the EC50 in data set [1] (setting [7]) was determined as 40 nM. The same molecule registered a concentration for half-maximal inhibition (IC50) at 3 day in data set [3] of 13200 nM.
In the case of `CC1(C)CC(O)CC(C)(CNc2ccc(Cl)c(C#N)c2)C1` (stereo not drawn) [Example IIa-30, 2-Chloro-5-[((cis-1,5)-5-hydroxy-1,3,3-trimethyl-cyclohexylmethyl)-amino]-benzonitrile], in data set [1] (setting [7]), the EC50 is 140 nM. Also, in data set [2], half-maximal inhibition (IC50 at 3 day) was put at 7990 nM.
